Assay results as given in PubChem BioAssay AID256 (DTP/NCI, 2004).
Where “and” joins values, the source holds several entries; their conditions need not be identical. Equal entries are not always repeated. Toxic doses and inconclusive results are not listed. Starred links: 1 amine or outer side, 2 acyl side, 3 side chain; linkers in the order of their positions; H or OH if unused. Positions of bridges follow the written chain, without caps; N, C: chain ends. Non-standard residues stand in square brackets, D forms with d. Residues, ends and D or L forms follow the SMILES beside them. Chains are numbered I, II in the order given. Actinocin(1to9) = Cc1c2oc3c(C)ccc(C(=O)[*:2])c3nc-2c(C(=O)[*:1])c(N)c1=O; NMeV = CN[CH](C(=O)O)C(C)C; Sar = CNCC(=O)O

System: CD2F1 mice, L1210 leukemia ip, survival T/C
Experiment: NCI In Vivo Anticancer Drug Screen. Data for tumor model L1210 Leukemia (intraperitoneal) in CD2F1 (CDF1) mice
Conditions: higher = longer survival
In short: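 Compound-dosed mice with transplantable tumor versus matched vehicle controls; endpoint ratio T/C reported.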

[1] = endpoint: mean survival time, dose: 100.0 mg/kg/injection, schedule: Q04DX003 (ip), vehicle: saline
[2] = endpoint: mean survival time, dose: 200.0 mg/kg/injection, schedule: Q04DX003 (ip), vehicle: saline
[3] = endpoint: mean survival time, dose: 100.0 mg/kg/injection, schedule: Q01DX001 (ip), vehicle: saline with Tween-80
[4] = endpoint: mean survival time, dose: 200.0 mg/kg/injection, schedule: Q01DX001 (ip), vehicle: saline with Tween-80
[5] = endpoint: mean survival time, dose: 400.0 mg/kg/injection, schedule: Q01DX001 (ip), vehicle: saline with Tween-80
[6] = endpoint: mean survival time, dose: 100.0 mg/kg/injection, schedule: Q01DX009 (ip), vehicle: saline with Tween-80
[7] = endpoint: mean survival time, dose: 200.0 mg/kg/injection, schedule: Q01DX009 (ip), vehicle: saline with Tween-80
[8] = endpoint: mean survival time, dose: 400.0 mg/kg/injection, schedule: Q01DX009 (ip), vehicle: saline with Tween-80
[9] = endpoint: mean survival time, dose: 50.0 mg/kg/injection, schedule: Q01DX001 (ip), vehicle: saline with Tween-80
[10] = endpoint: mean survival time, dose: 25.0 mg/kg/injection, schedule: Q04DX003 (ip), vehicle: saline with Tween-80
[11] = endpoint: mean survival time, dose: 100.0 mg/kg/injection, schedule: Q04DX003 (ip), vehicle: saline with Tween-80
[12] = endpoint: mean survival time, dose: 200.0 mg/kg/injection, schedule: Q04DX003 (ip), vehicle: saline with Tween-80
[13] = endpoint: mean survival time, dose: 400.0 mg/kg/injection, schedule: Q04DX003 (ip), vehicle: saline with Tween-80
[14] = endpoint: mean survival time, dose: 100.0 mg/kg/injection, schedule: Q01DX009 (ip), vehicle: saline
[15] = endpoint: mean survival time, dose: 200.0 mg/kg/injection, schedule: Q01DX009 (ip), vehicle: saline

## O=C(SSCCSSCCSSC(=O)N1CCOCC1)N1CCOCC1
endpoint: mean survival time, dose: 100.0 mg/kg/injection, schedule: Q01DX001 (ip), vehicle: Klucel (hydroxypropylcellulose) (HPC)
  T/C: 93 % of control
endpoint: mean survival time, dose: 200.0 mg/kg/injection, schedule: Q01DX001 (ip), vehicle: Klucel (hydroxypropylcellulose) (HPC)
  T/C: 100 % of control
endpoint: mean survival time, dose: 400.0 mg/kg/injection, schedule: Q01DX001 (ip), vehicle: Klucel (hydroxypropylcellulose) (HPC)
  T/C: 93 % of control

## O=C1C(=O)c2ccccc2C(O)=C1CCCc1ccc(OCc2ccccc2)cc1
[1]
  T/C: 86 % of control
[2]
  T/C: 88 % of control

## OC1(C#CCC2(O)CCCCC2)CCCCC1
[3]
  T/C: 91 % of control
[4]
  T/C: 91 % of control
[5]
  T/C: 93 % of control

## Cc1cc(OC(=O)N2CCCCC2)c(C(C)C)cc1[N+](C)(C)C
endpoint: mean survival time, dose: 0.06 mg/kg/injection, schedule: Q01DX009 (ip), vehicle: saline
  T/C: 95 % of control
endpoint: mean survival time, dose: 0.07 mg/kg/injection, schedule: Q04DX003 (ip), vehicle: saline sonified
  T/C: 97 % of control
endpoint: mean survival time, dose: 0.13 mg/kg/injection, schedule: Q04DX003 (ip), vehicle: saline sonified
  T/C: 106 % of control
endpoint: mean survival time, dose: 0.25 mg/kg/injection, schedule: Q04DX003 (ip), vehicle: saline sonified
  T/C: 100 % of control

## CCCCN1CCCCC1C(=O)Nc1c(C)cccc1C (stereo unspecified)
endpoint: mean survival time, dose: 9.5 mg/kg/injection, schedule: Q01DX001 (ip), vehicle: saline
  T/C: 102 % of control
endpoint: mean survival time, dose: 19.0 mg/kg/injection, schedule: Q01DX001 (ip), vehicle: saline
  T/C: 102 % of control
endpoint: mean survival time, dose: 38.0 mg/kg/injection, schedule: Q01DX001 (ip), vehicle: saline
  T/C: 100 % of control

## C[Si](C)(C)Oc1c(Cl)cc(Cl)cc1Cl
[6]
  T/C: 100 % of control
[7]
  T/C: 91 % of control
[8]
  T/C: 87 % of control

## COc1cc(NC(=O)CC(C)=O)c(OC)cc1Cl
[6]
  T/C: 96 % of control
[7]
  T/C: 94 % of control
[8]
  T/C: 91 % of control

## CCCCCCCP(=O)(CCCCCCC)CCCCCCC
endpoint: mean survival time, dose: 25.0 mg/kg/injection, schedule: Q01DX001 (ip), vehicle: saline with Tween-80
  T/C: 107 % of control
[9]
  T/C: 96 % of control
[3]
  T/C: 100 % of control

## CNC(Cc1ccccc1)c1ccccc1 (stereo unspecified)
[10]
  T/C: 91 % of control
endpoint: mean survival time, dose: 50.0 mg/kg/injection, schedule: Q04DX003 (ip), vehicle: saline with Tween-80
  T/C: 93 % of control
[11]
  T/C: 95 % of control and 97 % of control

## O=S(=O)(/C=C\S(=O)(=O)c1ccccc1)c1ccccc1
endpoint: mean survival time, dose: 12.5 mg/kg/injection, schedule: Q01DX009 (ip), vehicle: Klucel (hydroxypropylcellulose) (HPC)
  T/C: 98 % of control
endpoint: mean survival time, dose: 25.0 mg/kg/injection, schedule: Q01DX009 (ip), vehicle: Klucel (hydroxypropylcellulose) (HPC)
  T/C: 95 % of control

## CCCC(=O)Nc1ccc(S(=O)(=O)Nc2ccc(S(=O)(=O)N3CCOCC3)cc2)cc1
[3]
  T/C: 103 % of control
[4]
  T/C: 92 % of control
[5]
  T/C: 94 % of control

## CCN(CC)Cc1ccc(Nc2cc(C)nc(/N=C(\N)Nc3ccc(Cl)c(Cl)c3)n2)cc1
endpoint: mean survival time, dose: 12.5 mg/kg/injection, schedule: Q04DX003 (ip), vehicle: saline with Tween-80
  T/C: 98 % of control
[10]
  T/C: 95 % of control

## Cc1ccc(S(=O)(=O)N/N=C/Cc2c(C)cc(C)cc2C)cc1
endpoint: median survival time, dose: 25.0 mg/kg/injection, schedule: Q04DX002 (ip), vehicle: saline with Tween-80
  T/C: 100 % of control
endpoint: median survival time, dose: 50.0 mg/kg/injection, schedule: Q04DX002 (ip), vehicle: saline with Tween-80
  T/C: 100 % of control
endpoint: median survival time, dose: 100.0 mg/kg/injection, schedule: Q04DX002 (ip), vehicle: saline with Tween-80
  T/C: 100 % of control
endpoint: median survival time, dose: 200.0 mg/kg/injection, schedule: Q04DX002 (ip), vehicle: saline with Tween-80
  T/C: 110 % of control

## CCC(C)C1NC(=O)C(NC(=O)c2c3nc4c(C(=O)NC5C(=O)NC(C(C)CC)C(=O)N6CCCC6C(=O)N(C)CC(=O)N(C)C(C(C)C)C(=O)OC5C)ccc(C)c4oc-3c(C)c(=O)c2N)C(C)OC(=O)C(C(C)C)N(C)C(=O)CN(C)C(=O)C2CCCN2C1=O (stereo unspecified) (I: TIP[Sar][NMeV] / II: TIP[Sar][NMeV]; ester I:1-I:C, II:1-II:C; linker I:N-II:N via Actinocin(1to9); configuration not given here)
endpoint: mean survival time, dose: 0.25 mg/kg/injection, schedule: Q01DX001 (ip), vehicle: saline
  T/C: 112 % of control
endpoint: mean survival time, dose: 0.5 mg/kg/injection, schedule: Q01DX001 (ip), vehicle: saline
  T/C: 120 % of control

## ClC1CC2C=CC1C2 (stereo unspecified)
[3]
  T/C: 103 % of control
[4]
  T/C: 100 % of control
[5]
  T/C: 102 % of control

## Cc1ccc(-c2csc(/N=C/c3ccccc3O)n2)cc1
[3]
  T/C: 89 % of control
[4]
  T/C: 86 % of control
[5]
  T/C: 86 % of control

## CCOC(=O)CC(=O)c1c(C)cc(C)c(Br)c1C
[12]
  T/C: 97 % of control
[13]
  T/C: 92 % of control

## COC(=O)c1ccccc1NCCNc1ccccc1C(=O)OC
endpoint: mean survival time, dose: 50.0 mg/kg/injection, schedule: Q04DX002 (ip), vehicle: saline with Tween-80
  T/C: 100 % of control
endpoint: mean survival time, dose: 200.0 mg/kg/injection, schedule: Q04DX002 (ip), vehicle: saline with Tween-80
  T/C: 95 % of control
endpoint: mean survival time, dose: 400.0 mg/kg/injection, schedule: Q04DX002 (ip), vehicle: saline with Tween-80
  T/C: 88 % of control

## NC(CCSCc1ccc(N(CCCl)CCCl)cc1)C(=O)O (stereo unspecified)
endpoint: mean survival time, dose: 14.0 mg/kg/injection, schedule: Q01DX009 (ip), vehicle: carboxymethylcellulose (CMC)
  T/C: 152 % of control

## O=C(O)c1[nH]c2c([N+](=O)[O-])cc([N+](=O)[O-])cc2c1C(=O)O
endpoint: mean survival time, dose: 75.0 mg/kg/injection, schedule: Q01DX001 (ip), vehicle: saline
  T/C: 103 % of control
endpoint: mean survival time, dose: 150.0 mg/kg/injection, schedule: Q01DX001 (ip), vehicle: saline
  T/C: 97 % of control

## Clc1ccc2[nH]c3nc4ccccc4nc3c2c1
[14]
  T/C: 106 % of control
[15]
  T/C: 108 % of control

## c1ccc(C[n+]2ccccc2)cc1
endpoint: mean survival time, dose: 12.5 mg/kg/injection, schedule: Q01DX009 (ip), vehicle: saline
  T/C: 100 % of control
endpoint: mean survival time, dose: 25.0 mg/kg/injection, schedule: Q01DX009 (ip), vehicle: saline
  T/C: 100 % of control
endpoint: mean survival time, dose: 50.0 mg/kg/injection, schedule: Q01DX009 (ip), vehicle: saline with Tween-80
  T/C: 100 % of control
endpoint: mean survival time, dose: 50.0 mg/kg/injection, schedule: Q01DX009 (ip), vehicle: saline
  T/C: 106 % of control

## Cc1c([N+](=O)[O-])cc(Cl)n[n+]1[O-]
endpoint: mean survival time, dose: 3.13 mg/kg/injection, schedule: Q04DX002 (ip), vehicle: saline with Tween-80
  T/C: 101 % of control
endpoint: mean survival time, dose: 6.25 mg/kg/injection, schedule: Q04DX002 (ip), vehicle: saline with Tween-80
  T/C: 97 % of control
endpoint: mean survival time, dose: 12.5 mg/kg/injection, schedule: Q04DX002 (ip), vehicle: saline with Tween-80
  T/C: 96 % of control

## NS(N)(=O)=O
[14]
  T/C: 105 % of control
[15]
  T/C: 100 % of control
endpoint: mean survival time, dose: 400.0 mg/kg/injection, schedule: Q01DX009 (ip), vehicle: saline
  T/C: 97 % of control

## CCOC(=O)C(CNc1ccccc1)C(=O)OCC
[11]
  T/C: 101 % of control
[12]
  T/C: 104 % of control
[13]
  T/C: 104 % of control

## CN1C(=O)[N+](C)(C)N=C1[O-]
[1]
  T/C: 94 % of control
[2]
  T/C: 97 % of control
endpoint: mean survival time, dose: 400.0 mg/kg/injection, schedule: Q04DX003 (ip), vehicle: saline
  T/C: 95 % of control

## COc1cccc2c1C(=O)c1c(O)c3c(c(O)c1C2=O)C[C@@](O)(C(=O)CN1CCN(C)CC1)C[C@@H]3OC1CC(N)C(O)C(C)O1 (stereo partly specified)
endpoint: mean survival time, dose: 6.25 mg/kg/injection, schedule: Q04DX003 (ip), vehicle: water
  T/C: 88 % of control
endpoint: mean survival time, dose: 12.5 mg/kg/injection, schedule: Q04DX003 (ip), vehicle: water
  T/C: 90 % of control
endpoint: mean survival time, dose: 25.0 mg/kg/injection, schedule: Q04DX003 (ip), vehicle: water
  T/C: 90 % of control
endpoint: mean survival time, dose: 50.0 mg/kg/injection, schedule: Q04DX003 (ip), vehicle: water
  T/C: 91 % of control
endpoint: mean survival time, dose: 100.0 mg/kg/injection, schedule: Q04DX003 (ip), vehicle: water
  T/C: 86 % of control

## C1CO[P+]2(O1)OCCO2
endpoint: mean survival time, dose: 100.0 mg/kg/injection, schedule: Q04DX002 (ip), vehicle: saline
  T/C: 95 % of control
endpoint: mean survival time, dose: 200.0 mg/kg/injection, schedule: Q04DX002 (ip), vehicle: saline
  T/C: 107 % of control
endpoint: mean survival time, dose: 400.0 mg/kg/injection, schedule: Q04DX002 (ip), vehicle: saline
  T/C: 95 % of control

## CCCCNc1cc(=O)[nH]c(=O)[nH]1
[9]
  T/C: 104 % of control
[3]
  T/C: 98 % of control
[4]
  T/C: 102 % of control

## C=C(Cl)CSCCCS
endpoint: mean survival time, dose: 100.0 mg/kg/injection, schedule: Q04DX003 (ip), vehicle: acetone
  T/C: 111 % of control
endpoint: mean survival time, dose: 200.0 mg/kg/injection, schedule: Q04DX003 (ip), vehicle: acetone
  T/C: 116 % of control
endpoint: mean survival time, dose: 400.0 mg/kg/injection, schedule: Q04DX003 (ip), vehicle: acetone
  T/C: 122 % of control
